From patent US6897065B1, “Method for maturation of conifer somatic embryos” (Woody Plant Biotech APS, priority 1999, dated 2005)

What was measured:
[1] = tested on: Abies nordmanniana cell lines; assay: Maturation of Abies nordmanniana cell lines with different carbohydrate sources (shift from maltose to sucrose); type: cell-based; settings: for development of mature embryos: 45 g/L as sole carbohydrate source during the entire maturation period (treatments A, B)
Experimental: Except from the carbohydrates, the basic maturation medium was composed as described for the control in example 1. However, PCIB was included in a prior determined optimum concentration and period for each of the tested cell lines. Four treatments with different combinations of carbohydrates were tested during maturation: • A) Maturation on culture medium comprising 45 g/L sucrose as carbohydrate source during the entire maturation period. • B) Maturation on culture medium comprising 45 g/L maltose as carbohydrate source during the entire maturation period. Typical embryo from the treatment is disclosed in the left picture of FIG. 9. • C) Maturation on culture medium with 45 g/L maltose during the first part of the maturation period, followed by a shift to maturation medium comprising 22.5 g/L sucrose and 22.5 g/L maltose during the last two weeks of the maturation period. Typical embryo from the treatment is disclosed in the right picture of FIG. 9. • D) Maturation on culture medium with 45 g/L maltose during the first part of the maturation period, followed by a shift to maturation medium comprising 45 g/L sucrose as carbohydrate source for the last two weeks of the maturation period. Typical embryo from the treatment is disclosed in the center picture of FIG. 9. Results

[2] = tested on: Picea sitchensis cell lines G.1.12, G.1.13; assay: Maturation in embryogenic cultures of Picea sitchensis; type: cell-based; settings: anti-auxin step as for Picea abies
Experimental: Two cell lines of Picea sitchensis, G.1.12, G.1.13, initiated from cotyledons from mature embryos were used for the present study. The cultures were initiated and pretreated on BMI-S1 medium as above, but with 1000 mg/L casein hydrolysate and 10 μM 2,4-D. Pretreatment, maturation medium and anti-auxin step as for Picea abies.

[3] = tested on: embryogenic cell lines of Abies nordmanniana; assay: Maturation of the tested established Abies nordmanniana embryogenic cell lines (G.3.8, G.35.8, G.78.14); type: cell-based
Source text: (§1) Three different cell lines of Abies nordmanniana were used in the present study. The tested cell lines have been in continuous culture for several years. The cell line G.3.8 was initiated from an immature zygotic embryo in 1989 on half strength MS medium (Murashige and Skoog, 1962) as described previously (Nørgaard and Krogstrup, 1991), Cell line G.35.8 was initiated from a mature zygotic embryo on SH medium in 1991 (Nørgaard and Krogstrup, 1995), and cell line G.78.14 was initiated in 1993 from an immature zygotic embryo on modified half strength BLG medium (Verhagen and Wann, 1989). From 1996, all cultures were maintained by biweekly subculture onto fresh half strength modified BLG medium and grown at 24+/−1° C. in the dark. Cell lines G.3.8 and G.78.14 proliferated fast on maintenance medium with a doubling time of the weight shorter than 2 weeks. Cell line G.35.8 proliferated relatively slowly with a doubling time of the weight higher than 2 weeks.
(§2) The standard maturation medium (the control) is modified from the half strength BLG proliferation medium mentioned above. […] The choice of these three culture medium components is determined primarily by the conifer species in question. […] Similarly it is known that addition of PEG-4000 improves maturation. Still it may be possible to obtain just as good results with other combinations of these components and also by using other components with equivalent effects.
(§3) In this experiment, the standard maturation medium was modified by excluding PEG and by including one of the following 3 chemicals, that are traditionally expected to affect the endogenous concentration of the naturally occurring auxin IAA or to affect the normal effect of auxin in plant cells: 1) PCIB (auxin-antagonist) in a concentration of 25 or 117 μM, 2) TIBA (auxin transport inhibitor) in a concentration of 5 or 50 μM, 3) phlouroglucinol: (inhibitor of auxin degradation) (see George 1993, page 429 bottom-430) in a concentration of 30 mM. In addition to these modifications the standard maturation medium was modified by: 4) reducing the concentration of boron (precursor of indole acetic acid synthesis) to 10 μM, i.e. 20% of the normal concentration and finally by 5) including 25 μM PCIB in medium with no ABA.
(§4) The cultures were matured in the dark at 24° C.+/−1° C.
Two weeks after the last subculture, 4 grams of embryogenic cells was transferred to a 250 mL Flask (Blue cap) together with a magnet stirrer. 100 mL of liquid proliferation medium was added, and the suspension was stirred for 5 minutes at high speed on a magnet stirrer to obtain a homogenous suspension of cells and cell clumps. The culture was then pre-cultured on a gyrotory shaker (120 rpm) for one week at 24+/−1° C. in the dark. Following the pre-culture, the culture was stirred again on a magnet stirrer at high speed for 5 minutes. The culture was transferred to a 100 mL measuring cylinder and allowed to settle for 30 min. The supernatant was discharged and from the remaining culture aliquots of 1 mL were transferred with a cut pipette tip onto filter paper (Whatmann #2) placed on 25 mL of maturation medium in 10 cm Petri dishes (Nunc, Denmark). The filters containing the maturing somatic cultures were transferred onto fresh medium every 2 weeks.
FIG. 5 discloses maturation of cell line G.78.14. This cell line proliferates rapidly and produces very few normal mature embryos according to prior methods. The cell line was matured for 20 weeks on medium comprising 40 μM ABA and a) 25 μM PCIB, b) 0.4 mM phloroglucinol, or c) reduced concentration of Boron (20% of normal concentration). For control see FIG. 1a or 2a.
FIG. 6 discloses maturation of cell line G.78.14 for 20 weeks on maturation medium comprising 40 μM ABA and a) 2.5 mg/L TIBA (5 μM), or b) 25 mg/L TIBA (50 μM).

[4] = tested on: Abies nordmanniana cell line G.3.8; assay: Maturation of established Abies nordmanniana cell line G.3.8 (fast proliferating); type: cell-based
Source text: as §1, §2, §3, §4
Two weeks after the last subculture, 4 grams of embryogenic cells was transferred to a 250 mL Flask (Blue cap) together with a magnet stirrer. 100 mL of liquid proliferation medium was added, and the suspension was stirred for 5 minutes at high speed on a magnet stirrer to obtain a homogenous suspension of cells and cell clumps. The culture was then pre-cultured on a gyrotory shaker (120 rpm) for one week at 24+/−1° C. in the dark. […]

[5] = tested on: mature somatic embryos of Abies nordmanniana; assay: Germination of mature somatic embryos; settings: embryos matured with PCIB in the maturation medium
Experimental: Well-developed mature embryos were collected for cold treatment after about 20 weeks of maturation. The isolated mature embryos were transferred to a nylon filter that was placed on a foam rubber pad in a high Petri dish. A wetted filter paper was placed in the bottom and in the lid of the Petri dish. The Petri dish was closed, sealed with two rounds of polyethylene film, wrapped with aluminium foil, and then placed at 5° C. in the dark for 4 weeks for cold treatment. After cold treatment, the nylon filter with the mature embryos was transferred to BGM-2 medium (Krogstrup et al, 1988). The BGM-2 medium included 20 g/L sucrose, 10 g/L activated charcoal (Merck 5411), and was galled with 3.5 g/L Phytagel (Gellan gum). The Petri dishes were placed in a growth room at 20° C. with a 16 hour photoperiod. After one week of germination, the nylon net was removed and the embryos were placed in direct contact with the medium. After two weeks of germination, embryos with a root were placed vertically with the root submerged in the medium. Later, the germinating embryos were transferred to soil and placed in a controlled greenhouse.

[6] = tested on: Picea abies embryogenic cell lines D.2.9, D.4.1, D.7.1; assay: Maturation in embryogenic cultures of Picea abies; type: cell-based
Experimental: Three embryogenic cell lines, D.2.9, D.4.1, D.7.1, of Picea abies, initiated from immature seeds in 1989 and kept in cryostorage until 1998 as described by Nørgaard et al (1993) were used for the present experiment. The cultures were maintained on semi-solid proliferation medium BMI-S1 (Krogstrup 1986) gelled with 1.8 g/L gelrite by biweekly sub-cultures. Prior to transfer to maturation medium, 4 grams of cell mass from each cell line was weighed off and transferred to 50 ml liquid proliferation medium in a 250 ml Erlenmeyer flask. The flask also contained a sterile magnet.
To disintegrate the cultures they were stirred for 5 minutes using a magnet stirrer. Then the flasks were shaken for 15 minutes on a rotary shaker at 175 rpm. The medium with suspended cell aggregates were subsequently poured into a 100 ml measuring cylinder and allowed to settle for 30 minutes. The supernatant was discarded and aliquots of 1 ml of cells were plated on sterile Whatman #54 paper discs placed an the various maturation media. Three replicate dishes were made for each combination of cell line and treatment.
Five maturation protocols were tested. • A: Maturation on BMG-1 medium (Krogstrup et al 1988) modified by increasing the ABA concentration to 40 μM. • B: As A, but from week 2 to week 4 maturation on culture medium comprising 2.5 μM PCIB and 40 μM ABA. • C: As A, but from week 2 to week 4 maturation on culture medium comprising 5.0 μM PCIB and 40 μM ABA. • D: Maturation on medium comprising 2.5 μM PCIB and 40 μM ABA. • E: Maturation an medium comprising 5.0 μM PCIB and 40 μM ABA. Results

[7] = tested on: Abies nordmanniana cell line G.35.8; assay: Maturation of established Abies nordmanniana cell line G.35.8 (slowly proliferating); type: cell-based
Source text: as §1
The standard maturation medium (the control) is modified from the half strength BLG proliferation medium mentioned above. […] The choice of these three culture medium components is determined primarily by the conifer species in question. […] Similarly it is known that addition of PEG-4000 improves maturation. […]

[8] = tested on: newly established Abies nordmanniana embryogenic cell lines; assay: Maturation in newly established Abies nordmanniana embryogenic cultures; type: cell-based; settings: 8 weeks maturation, 40 μM ABA and 25 μM PCIB from week 2 to 4; cell lines less than 6 months old
Experimental: Approximately 50 cell lines were initiated from mature seeds in the same way as cell line G.78.14 (Example 1). The cultures were initiated and maintained on modified half strength BLG medium (See example 1). The cultures were less than 6 months old when they were subjected to maturation. The cultures were plated as described in Example 1. The cultures were subjected to two different maturation protocols. • 1) Maturation for 8 weeks on culture medium comprising 40 μM ABA and 5% PEG-4000. • 2) Maturation for as 1) but from week 2 to 4 the cultures were on culture medium comprising 40 μM ABA and 25 μM PCIB.

[9] = medium including both ABA and 25 μM PCIB
[10] = 25 μM PCIB + 40 μM ABA from week 4 to 8 of the 20 week maturation period

OC[C@H]1O[C@H](O[C@H]2[C@H](O)[C@@H](O)C(O)O[C@@H]2CO)[C@H](O)[C@@H](O)[C@@H]1O (mixture of isomers) [maltose]
development of mature embryos [1]: high numbers of embryos were produced
average fresh weight of mature embryos ([1]; treatment B: 45 g/L maltose during the entire maturation period): about 50 mg

CC(C)(Oc1ccc(Cl)cc1)C(=O)O [PCIB, p-Chlorophenoxyisobutyric acid]
general appearance of the cultures [2]: improved
proliferation during maturation [2]: proliferation was clearly reduced
proliferation during maturation ([3]; 25 μM PCIB, ABA excluded): proliferation was reduced
development of mature embryos ([3]; 25 μM PCIB, ABA excluded, 20 weeks, all tested cell lines): only few and clearly abnormal and precociously germinating embryos were developed
embryo morphology (abnormality) ([3]; higher concentrations than 25 μM of PCIB): the embryos developed asymmetrically with one major and one minor cotyledon (FIG. 4C) or with only one cotyledon
development of embryos during maturation [3, 9]: high numbers of embryos developed
proliferation during maturation [3, 9]: proliferation was reduced
embryo morphology (abnormality) ([3]; slowly proliferating cell lines, ABA and 25 μM PCIB for longer periods than 4 weeks): embryos with only two symmetric cotyledons developed
number of well-formed mature embryos ([4]; 25 μM PCIB + 40 μM ABA during the entire 20 week maturation period): about 125 embryos per Petri dish
number of well formed mature embryos [4, 10]: about 40 embryos per Petri dish
proliferation during maturation ([4]; 25 μM PCIB during the entire maturation period): strongly reduced
proliferation during maturation ([4]; 25 μM PCIB from week 4 to 8 of the 20 week maturation period): reduced slightly
embryos that developed both shoot and root on germination [5]: ~100%
production of mature somatic embryos ([6]; cell line D.2.9, anti-auxin step (2.5 or 5.0 μM PCIB + 40 μM ABA)): a high number of mature somatic embryos are in turn produced
number of somatic embryos compared with no anti-auxin step ([6]; cell lines D.4.1 and D.7.1 (A-type), 2.5 or 5.0 μM PCIB + 40 μM ABA): produced higher numbers of somatic embryos
proliferation during maturation ([6]; cell lines D.4.1 and D.7.1, 2.5 or 5.0 μM PCIB + 40 μM ABA): reduce the proliferation during maturation
number of well formed mature embryos ([7]; 25 μM PCIB + 40 μM ABA during the entire maturation period): about 15 embryos per Petri dish
number of well formed mature embryos [7, 10]: about 250 embryos per Petri dish
production of mature somatic embryos [8]: almost all cell lines produced high numbers of mature somatic embryos

O=C(O)c1cc(I)cc(I)c1I [TIBA, 2,3,5-tri-iodobenzoic acid]
development of mature embryos ([3]; TIBA 5 and 50 μM + 40 μM ABA, 20 weeks): only very few, and mostly abnormal, mature embryos developed
proliferation on the maturation medium ([3]; TIBA 5 and 50 μM + 40 μM ABA, all tested cell lines): strong reduction of the proliferation

Oc1cc(O)cc(O)c1 [phloroglucinol]
proliferation during maturation ([3]; phloroglucinol 0.4 mM + 40 μM ABA): proliferation was increased
development of well developed embryos ([3]; phloroglucinol 0.4 mM + 40 μM ABA, 20 weeks): no well developed embryos were found

OC[C@H]1O[C@@](CO)(O[C@H]2O[C@H](CO)[C@@H](O)[C@H](O)[C@H]2O)[C@@H](O)[C@@H]1O [sucrose]
development of mature embryos [1]: no well developed mature embryos were produced
size of the mature embryos ([1]; shift from maltose to medium including sucrose during the last two weeks of maturation (treatments C and D)): clear increase in the size of the mature embryos
reduction of the maturation period, treatment D compared to treatment B ([1]; shift to 45 g/L sucrose for the last two weeks): about four
average fresh weight of mature embryos ([1]; treatment D: 45 g/L maltose, shift to 45 g/L sucrose for the last two weeks): about 120 mg per embryo
